Data taken from publication PMC11645656, “MRGPRX4 mediates phospho-drug associated pruritus in a humanized mouse model” (Science translational medicine, 2024).
“And” between values parts separate entries of the source, which are not always exact repeats. Identical values can stand only once.

Experiments:
[1] = target: T1, MRGPRX4 (S83) (Homo sapiens, UniProt Q96LA9, L83S); test: EC50 determination, intracellular calcium mobilization in MRGPRX4 stably expressed HEK293 cells (FLIPR Calcium 5, Flexstation-3); assay type: cell-based; design: Fig. 1D dose-response, calcium mobilization response (individual replicate) / calcium mobilization response (Fig. 1D dose-response raw data): unit not given here
T1 construct: expressed in transfected cells
T1 sequence (Q96LA9 whole entry L83S): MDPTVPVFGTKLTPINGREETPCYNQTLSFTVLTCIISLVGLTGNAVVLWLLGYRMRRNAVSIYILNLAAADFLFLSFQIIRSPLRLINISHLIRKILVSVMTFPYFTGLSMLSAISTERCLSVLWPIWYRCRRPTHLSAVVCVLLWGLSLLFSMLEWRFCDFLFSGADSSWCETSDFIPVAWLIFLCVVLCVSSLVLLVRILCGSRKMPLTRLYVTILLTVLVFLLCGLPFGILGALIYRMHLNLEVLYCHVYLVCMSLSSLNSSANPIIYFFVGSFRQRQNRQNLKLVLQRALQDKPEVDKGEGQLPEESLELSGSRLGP
Summary of the method: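 HEK293 cells stably expressing receptor (parental HEK293 alongside) loaded with Calcium 5 dye in HBSS/20 mM HEPES, pH 7.4, 1 h at 37 °C, then compounds added. Response = peak minus pre-drug baseline, triplicates averaged; EC50 from 4PL fit.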

[2] = system: NP2-WT mice; test: Itch behavioral study (scratching bouts after subcutaneous nape injection) in littermate control NP2-WT mice; assay type: in vivo; details: 30 min after injection of 50 μl 10 mM into the nape, each cell one mouse
From the text: Fig. 2. Phosphate monoester prodrugs induce itch in NP2-MRGPRX4+ mice through activating NP2 primary sensory neurons. (A) Mating strategy to generate NP2-X4+ mice. (B) In situ hybridization showing MRGPRX4 transcripts (magenta) in NP2-X4+ DRG as indicated by arrowheads (left) but not in littermate control NP2-WT (right). NP2 subpopulation accounts for 5% of total DRG neurons. DAPI, blue. Scale bar, 50 μm. […] . Data are expressed as mean ± SEM. *p< 0.05, **p< 0.01 and ***p< 0.001 by two-tailed unpaired Student’s t-test. ns = no statistical significance observed. (D and E) Traces of average (top, depicted as mean ± 95% confidence interval) and individual (bottom, reflected by the heatmap) calcium activity, measured by fluorescence intensity normalized to the baseline intensity (FT/F0) over time of NP2-X4+ (D) and NP2-WT (E) DRG neurons labelled with GCaMP6s (n = 110–150 neurons pooled from 3–7 independent culture vessels from 2–4 mice in each condition). 10 μM phospho-drugs and 1 mM CQ were added as indicated by the arrowheads. Neurons with FT/F0 > 1.5 after compound application were considered a positive responder. NP2-X4+: NP2-MRGPRX4+; DRG, dorsal root ganglia; CQ: chloroquine.
. All the animals used were heterozygous unless otherwise specified. NP2-X4+ and NP2-WT littermates were generated by crossing Mrgpra3-Cre to Rosa26-lsl-MRGPRX4 as detailed previously ([15]). NP2-X4+ mice were further crossed to homozygous Rosa26-lsl-GCaMP6s to obtain NP2-WT/GCaMP6s and NP2-X4+/GCaMP6s animals. A detailed mating strategy is illustrated in fig. S5. Pirt-Cre-GCaMP6s animals were acquired by crossing Pirt-Cre to homozygous Rosa26-lsl-GCaMP6s. Pirt-Cre animals were generated through homologous recombination as indicated previously ([37]). Rosa26-lsl-GCaMP6s mouse line was provided by Dr. Dwight Bergles’ lab at the Johns Hopkins School of Medicine.

[3] = system: NP2-X4+ mice (MRGPRX4 in Mrgpra3+ NP2 sensory neurons); test: Itch behavioral study (scratching bouts after subcutaneous nape injection) in NP2-X4+ mice; assay type: in vivo, mouse

## CC(=O)OCC(=O)[C@@]1(O)[C@H](C)C[C@H]2[C@@H]3CCC4=CC(=O)C=C[C@]4(C)[C@@]3(F)[C@@H](O)C[C@@]21C [Dexamethasone acetate]
[1]; Concentration 9.76563e-7 M
  Fig. 1D dose-response, calcium mobilization response (individual replicate): -48.502 and -46.356 and -48.988 and -43.676 and -48.158 and -43.385 and -85.123 and -4.652 and -42.229
[1]; Concentration 1.95313e-6 M
  Fig. 1D dose-response, calcium mobilization response (individual replicate): -22.164 and -36.691 and -35.570 and -37.729 and -34.474 and -34.794 and -19.078 and -53.999 and -20.889
[1]; Concentration 3.90625e-6 M
  Fig. 1D dose-response, calcium mobilization response (individual replicate): -39.055 and -53.135 and -70.767 and -48.544 and -36.360 and -36.045 and -91.099 and -38.430 and -1.751
[1]; Concentration 7.8125e-6 M
  Fig. 1D dose-response, calcium mobilization response (individual replicate): -33.331 and -71.560 and -49.660 and -45.756 and -42.005 and -31.885 and -29.162 and -70.876 and -31.653
[1]; Concentration 1.5625e-5 M
  Fig. 1D dose-response, calcium mobilization response (individual replicate): -37.387 and -60.340 and -52.439 and -33.449 and -38.008 and -34.728 and -69.819 and -42.708 and -12.221
[1]; Concentration 3.125e-5 M
  Fig. 1D dose-response, calcium mobilization response (individual replicate): -47.434 and -56.549 and -63.778 and -43.258 and -41.889 and -38.256 and -62.786 and -46.904 and -33.452
[1]; Concentration 6.25e-5 M
  Fig. 1D dose-response, calcium mobilization response (individual replicate): -61.858 and -50.883 and -76.723 and -47.363 and -44.877 and -37.522 and -10.190 and -37.194 and -110.631
[1]; Concentration 0.00025 M
  Fig. 1D dose-response, calcium mobilization response (individual replicate): -64.043 and -50.303 and -56.027 and -44.560 and -42.575 and -45.473 and -89.145 and -53.447 and -8.636
[1]; Concentration 0.0005 M
  Fig. 1D dose-response, calcium mobilization response (individual replicate): -48.359 and -6.029 and -35.851 and -38.822 and -45.234 and -19.021 and -30.402 and -28.831 and -36.978
[1]; Concentration 0.001 M
  Fig. 1D dose-response, calcium mobilization response (individual replicate): -37.786 and -38.347 and -50.572 and -37.033 and -22.575 and -15.877 and -9.453 and -18.673 and -62.758
[2]
  Scratching bouts of individual animals: 20 and 31 and 30 and 18 and 14 and 9 and 75 and 34 and 3
[3]; 50 μl 10 mM nape injection
  Itch in both NP2-X4+ and littermate WT controls: slightly elevated itch
[3]; 50 μl 10 mM nape injection, 30 min
  Scratching / itch behavior, NP2-X4+ mice vs WT littermates: no differences in itch behavior were detected
[3]; NP2-X4+, 30 min after injection of 50 μl 10 mM into the nape, each cell one mouse
  Scratching bouts of individual animals: 0 and 26 and 59 and 22 and 2 and 3 and 9 (2×) and 20
